Experiments:
[1] = tested on: renin activity in rat plasma; assay: Action on renin activity in rat plasma (PRA increase due to EP4 agonist ONO-AE1-437); format: in vivo; settings: SD rats, 0.3 mg/kg po; ONO-AE1-437 0.01 mg/kg sc
Protocol: Test Example 6: Evaluation Test of Action on Renin Activity in Rat Plasma
SD rats (male, 7-week old) under non-fasting conditions were used for the test. A test compound dissolved in a mixed solution of PEG 400:20% Tween 80:1 mol/L aqueous NaHCO3 solution=1:4:5 was orally administered (po) to the rat at a dose of 0.3 mg/kg (5 mL/kg). After 1 hour, an active metabolite (ONO-AE1-437) of an EP4 agonist ONO-4819 dissolved in physiological saline was subcutaneously administered to the back of the rat at a dose of 0.01 mg/kg (5 mL/kg). After 10 minutes, the rat was decapitated without anesthesia and about 2 mL of blood was collected in a tube containing 3 mg of EDTA.2Na. The blood sample was centrifuged (1000×g, 10 minutes, 4° C.) to separate the plasma. […] The Angiotensin I concentration in both samples was measured by an ELISA method, and a concentration obtained by subtracting a value of the blank reaction from the value of the sample incubated at 37° C. was taken as a renin activity in plasma (plasma renin activity (PRA)). By taking the PRA of the inhibitor rate of the group (n=5) not treated with ONO-AE1-437 as 100% and taking that of the group (n=4) treated with ONO-AE1-437 as 0%, the inhibitory rate of the test compound group (n=5) was calculated.

rat EP4 receptor [2] = biological target: T1, rat EP4 receptor (Rattus norvegicus, UniProt P43114); assay: Rat EP4 receptor antagonistic action by measurement of cAMP amount in CHO-K1 cells; format: cell-based; parameters: expressed in transfected cells; settings: PGE2 100 nmol/L, CHO-K1 cells stably expressing rat EP4, average of two experiments; read-out: IC50 value with respect to the cAMP production action by PGE2 in rat EP4 receptor expressing CHO-K1 cells
T1 sequence (P43114 whole entry): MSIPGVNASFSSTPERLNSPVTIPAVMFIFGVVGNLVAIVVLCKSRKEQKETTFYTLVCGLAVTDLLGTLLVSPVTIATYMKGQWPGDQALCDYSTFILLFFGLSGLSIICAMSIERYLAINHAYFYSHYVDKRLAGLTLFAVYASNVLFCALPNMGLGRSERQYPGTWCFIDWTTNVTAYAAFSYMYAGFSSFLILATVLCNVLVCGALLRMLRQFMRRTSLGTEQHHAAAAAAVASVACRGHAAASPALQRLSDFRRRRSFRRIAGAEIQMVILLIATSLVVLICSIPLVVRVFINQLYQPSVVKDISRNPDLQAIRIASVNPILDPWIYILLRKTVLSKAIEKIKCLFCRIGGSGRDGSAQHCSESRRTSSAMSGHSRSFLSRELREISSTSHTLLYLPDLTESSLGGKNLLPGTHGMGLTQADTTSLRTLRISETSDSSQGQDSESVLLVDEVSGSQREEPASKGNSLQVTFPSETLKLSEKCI
Protocol: Test Example 4: Evaluation Test of Rat EP4 Receptor Antagonistic Action by Measurement of cAMP Amount
Construction of Vector Expressing Rat EP4 Receptor:
The construction was carried out in the same manner as in Test Example 1.
Construction of Cells Stably Expressing Rat EP4 Receptor:
The expression vector of a rat EP4 receptor was transfected into a CHO—K1 cell (ATCC No.: CCL-61). The transfection was carried out according to an appended instruction, using Lipofectoamine (registered trademark) 2000 reagent (Invitrogen Inc.). After the transfection, the cells were cultured in an α-MEM culture medium (product No. 12571063, Invitrogen Inc.) containing G418 (Nakalai Tesque Inc.) to acquire a drug-resistant clone.
Cell Culture and Treatment with Compound:
CHO—K1 cells stably expressing a rat EP4 were seeded in 96-well plates at 0.5×10^4 cells/100 μL and cultured overnight. […]
The cAMP amount in the cell lysate was measured using a cAMP HiRange kit. […] After incubation, the fluorescence intensity of the cryptate at 620 nm and the fluorescence intensity of the d2 at 665 nm were measured using ARVO1420. The cAMPs of 280, 70, 17.5, 4.38, 1.09, 0.27, and 0.068 nmol/L were added to each well to create a standard curve and the fluorescence intensity was measured as described above. […] An average value was calculated from two experiment results.

rat EP4 receptor [3] = biological target: T1, rat EP4 receptor; assay: In vivo rat EP4 receptor antagonistic action (plasma TNF-α after LPS and EP4 agonist ONO-AE1-437); parameters: from tissue; host or cells: whole animal (SD rat); settings: SD rats, 0.03 mg/kg po, ONO-AE1-437 0.01 mg/kg sc, LPS 0.01 mg/kg iv
Protocol: Test Example 5: Evaluation Test of In Vivo Rat EP4 Receptor Antagonistic Action
SD rats (male, 6-week old) under non-fasting conditions were used for the test. A test compound dissolved in a mixed solution of PEG 400: 20% Tween 80: 1 mol/L aqueous NaHCO3 solution=1:4:5 was orally administered (po) to the rat at a dose of 0.03 mg/kg (5 mL/kg). After 1 hour, an active metabolite (ONO-AE1-437 (CAS No. 256382-23-7)) of an EP4 agonist ONO-4819 dissolved in physiological saline was subcutaneously administered (sc) to the back of the rat at a dose of 0.01 mg/kg (5 mL/kg). After 30 minutes, Lipopolysaccharide (LPS, 0.01 mg/kg) was administered to the tail vein (2 mL/kg), and after 60 minutes, about 0.5 mL of blood was collected in a heparin-containing tube under anesthesia. The blood sample was centrifuged (1000×g, 10 minutes, 4° C.) to separate the plasma. The TNF-α concentration in the rat plasma was measured by an ELISA kit (DuoSet ELISA, R&D Systems). An inhibitory rate of the test compound group (n=5) with respect to the TNF-α production inhibitory action by the EP4 agonist was calculated by taking the TNF-α concentration of the group (n=5) not treated with ONO-AE1-437 as 100% and taking the TNF-α concentration of the group (n=5) treated with ONO-AE1-437 as 0%.

IC50 (rat EP4 receptor [2]): 1.04 nM | Inhibition of the TNF-α production inhibitory action of the EP4 agonist ONO-AE1-437 (rat EP4 receptor [3]): 38%
Compound: Cc1nn(Cc2cc3ccccc3cn2)c(C(=O)N[C@@H](C)c2ccc(C(=O)O)cc2)c1Br [Compound A, 4-[(1S)-1-({[4-bromo-1-(isoquinolin-3-ylmethyl)-3-methyl-1H-pyrazol-5-yl]carbonyl}amino)ethyl]benzoic acid]
Inhibition of the increase in PRA (plasma renin activity) due to the EP4 agonist ONO-AE1-437 [1]: 102%

— US10106523B2, “Amide compound” (ASTELLAS PHARMA INC., priority 2014, dated 2018)
